# Reference: PubChem BioAssay (NCI)
#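 Five compound concentrations were applied to cells in 96-well plates for 48 hours; endpoints were derived by simple linear interpolation of the resulting dose-response curve. GI50: concentration for 50% inhibition of growth. TGI denotes the concentration required for complete inhibition of growth.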
# Experiments:
# Assay in all cases: DTP human tumour cell line panel, 48 h
# HCT-116 colon = system: HCT-116 colon
# A498 renal = system: A498 renal
# ACHN renal = system: ACHN renal
# SNB-19 CNS = system: SNB-19 CNS
# CAKI-1 renal = system: CAKI-1 renal
# HT29 colon = system: HT29 colon
# U251 CNS = system: U251 CNS
# SR leukemia = system: SR leukemia
# SK-MEL-2 melanoma = system: SK-MEL-2 melanoma
# MDA-MB-231 breast = system: MDA-MB-231 breast
Structure (SMILES),TGI (HCT-116 colon) [µM],TGI (A498 renal) [µM],TGI (ACHN renal) [µM],TGI (SNB-19 CNS) [µM],TGI (CAKI-1 renal) [µM],TGI (HT29 colon) [µM],TGI (U251 CNS) [µM],TGI (SR leukemia) [µM],TGI (SK-MEL-2 melanoma) [µM],GI50 (HCT-116 colon) [µM],GI50 (A498 renal) [µM],GI50 (ACHN renal) [µM],GI50 (MDA-MB-231 breast) [µM],TGI (MDA-MB-231 breast) [µM],GI50 (SNB-19 CNS) [µM],GI50 (HT29 colon) [µM],GI50 (U251 CNS) [µM],GI50 (SR leukemia) [µM],GI50 (SK-MEL-2 melanoma) [µM],GI50 (CAKI-1 renal) [µM]
Cc1cc(O)c2c(c1)C(O)(c1ccc3c(c1O)C(=O)c1c(O)cc(C)cc1C3(O)C1OC(CO)C(O)C(O)C1O)c1cccc(O)c1C2=O (stereo unspecified),24.1,26.5,25.8,30.2,31.7,38.4,23.8,30.9,–,–,–,–,–,–,–,–,–,–,–,–
O=C(c1ccccc1)c1c(CC(O)c2cccnc2)n(C(=O)c2ccccc2)c2ccccc12 (stereo unspecified),30.8,–,82.7,63.1,70.6,35.6,30.7,35.1,35.8,–,–,–,–,–,–,–,–,–,–,–
Cc1cc(N(CCNc2ccnc3cc(Cl)ccc23)Cc2ccc3c(c2)OCO3)nc(N2CCN(C)CC2)n1,4.7,8.85,5.78,13,–,5.96,4.25,4.43,4.02,1.41,2.43,2.52,1.77,4.32,3.78,1.84,2.01,1.5,1.98,–
CC(C)N(C(=O)C12C3C4C1C1C2C3C41C(O)C(C)(C)C)C(C)C (stereo unspecified),> 50,> 50,> 50,> 50,> 50,> 50,> 50,> 50,–,–,–,–,–,–,–,–,–,–,–,–
Cc1cc([N+](=O)[O-])c(C)c2c1[nH]c1ccc(/C(CCC3CCCC3)=N\N)cc12,21.7,–,28.8,35.7,–,> 100,–,55.9,30.2,–,–,–,–,–,–,–,–,–,–,–
Cc1c(C)c2cc3c(=O)ccoc3c(C)c2oc1=O,–,> 100,> 100,> 100,–,–,> 100,–,> 100,–,–,–,–,–,–,–,–,–,–,–
O=C1[C@@H](c2ccc(Cl)cc2)[C@H]2CC=C[C@H]2N1O,–,–,–,> 100,> 100,> 100,–,–,> 100,–,–,–,–,–,–,–,–,–,–,–
C=C(C)C1CC2C(C)=C(OC(C)=O)C1n1c(=O)c3cc4ccccc4cc3c(=O)n12 (stereo unspecified),> 100,> 100,> 100,> 100,> 100,> 100,> 100,> 93,> 100,–,–,–,–,–,–,–,–,–,–,–
CC[O-].CC[O-].O=C1C(=C([O-])c2ccccc2)C(=O)c2ccccc21.O=C1C(=C([O-])c2ccccc2)C(=O)c2ccccc21.[Ti+4],> 100,> 100,> 100,93,> 100,> 100,–,–,> 100,> 100,> 100,> 100,–,–,29,> 100,–,–,66.3,29.6
O=[N+]([O-])c1ccc(N=Nc2c(O)[nH]c3ccc([N+](=O)[O-])cc23)cc1,–,> 100,76.4,40.5,> 100,51.8,41.7,> 100,> 100,–,–,–,–,–,–,–,–,–,–,–
O=C(CC(C(=O)c1cccs1)c1ccc2c(c1)OCO2)c1ccc(Br)cc1 (stereo unspecified),–,> 100,> 100,> 100,> 100,–,> 100,> 100,–,–,–,–,–,> 100,–,–,–,–,–,–
Cc1cc(C)c2c(c1)CN1CN2Cc2cc(C)cc(C)c21,37.2,–,35.9,–,> 100,29.9,32.3,39.3,–,–,–,–,–,–,–,–,–,–,–,–
CSc1ccc(C2=Nn3c(nnc3-c3ccc(F)c(Cl)c3)SC2)cc1,23.4,30.2,33.6,32.7,> 100,29.7,13.8,–,18,9.85,10,13.7,4.12,21,10.7,5.73,3.85,–,4.77,22.5
Cc1cc(Cl)ccc1NC(=O)C(=O)Cc1nc2ccc(C(=O)c3ccccc3)cc2[nH]c1=O,> 100,–,> 100,> 100,> 100,> 100,–,> 100,> 100,–,–,–,–,–,–,–,–,–,–,–
COC(=O)C1=CCON(c2ccccc2)C1c1ccccc1 (stereo unspecified),–,–,> 100,> 100,> 100,> 100,> 100,> 100,> 100,–,–,–,–,–,–,–,–,–,–,–
COc1ccc(OC)c(-c2cc(-c3ccccc3)nn2-c2ccc(S(=O)(=O)NC(C)=O)cc2)c1,–,–,–,–,33.9,–,–,> 100,> 100,–,–,–,3.09,14.1,–,–,–,2.38,36.2,13.9
CON(C)C(=O)C(C)NC(=O)OCc1ccccc1 (stereo unspecified),> 100,> 100,> 100,> 100,–,> 100,> 100,> 100,–,–,–,–,–,–,–,–,–,–,–,–
COc1ccc(C2SC(N)=Nc3c2c(C)nn3C(=O)c2ccc(Cl)cc2)cc1OC (stereo unspecified),> 10,–,> 10,> 10,> 10,> 10,> 10,> 10,> 10,–,–,–,–,> 10,–,–,–,–,–,–
O=c1oc2ccccc2c(O)c1C=NC(=S)c1ccncc1,> 100,–,> 100,> 100,> 100,> 100,> 100,–,> 100,–,–,–,–,> 100,–,–,–,–,–,–
CC(=O)c1cccc(N(/C=C/C(=O)C(F)(F)F)CC(=O)c2ccc(Cl)cc2)c1,> 100,> 100,> 100,–,> 100,> 100,> 100,–,> 100,> 100,> 100,> 100,> 100,> 100,–,> 100,> 100,–,> 100,> 100
CC(C)(C)OC(=O)NCC(C#N)CNC(=O)OC(C)(C)C,> 100,> 100,> 100,> 100,–,–,> 100,> 100,–,–,–,–,–,> 100,–,–,–,–,–,–
C/C(=N/N(C=O)C[n+]1ccccc1)C(CN(CC(C)C)CC(C)C)C(=O)Nc1ccc(C)cc1C (stereo unspecified),> 100,> 100,> 100,> 100,> 100,> 100,–,> 100,> 100,–,–,–,–,–,–,–,–,–,–,–
